Molecular target: T1, LiTryR (Leishmania infantum, UniProt A4HSF7)
T1 construct: HIS (N); made in house; host or cells: E. coli BL21 (DE3) Rossetta
Experiment: Residual activity of LiTryR after incubation with inhibitor and 2500-fold dilution
Format: biochemical
Conditions: LiTryR 400 nM, 25 μM inhibitor 16 h
Method: Adjustment to eq 1 (see equations in Experimental Section) of the progress curves of the reactions catalyzed by LiTryR allowed us to obtain the kobs values for six 19a concentrations (4.4, 5.9, 7.9, 10.5, 14.1, and 18.7 μM) at six different TS2 concentrations (3.1, 6.2, 12.5, 25, 50, and 100 μM) (Figures S2–S7 and Table S2). The different kobs values obtained at each substrate concentration can be used to determine the apparent inhibitory constants Ki^app and Ki*^app defined as the dissociation constant for the initial EI complex and the constant for the overall dissociation from E*I to E + I, respectively (eq 2).[42a],[42b] Based on the relationship among kobs, vi, and vs (k6 = kobs × vi/vs) at all of the trypanothione disulfide (TS2) and 19a concentrations assayed, k6 varies between 3.9 × 10^–6 and 6.5 × 10^–5 s^–1. […] Fixing this value for k6 rendered very good estimations of Ki^app and Ki*^app after the fitting process for all of the substrate concentrations assayed (Figure 3 and Table 2).
Scheme S4. Reversible sing le-step mechanism of t im e- dependent inhibition of Li TryR by […]
& A slow and reversible equilibrium between enzyme and inhibitor is governed by association and dissociation rate constants (k3 and k4, res pec tively).
Figure S13. Residual activity of Li TryR after incubation with 19a. […] Samples were diluted (2500-fold) and residual activity was evaluated. […]

T1 sequence (A4HSF7 1-491): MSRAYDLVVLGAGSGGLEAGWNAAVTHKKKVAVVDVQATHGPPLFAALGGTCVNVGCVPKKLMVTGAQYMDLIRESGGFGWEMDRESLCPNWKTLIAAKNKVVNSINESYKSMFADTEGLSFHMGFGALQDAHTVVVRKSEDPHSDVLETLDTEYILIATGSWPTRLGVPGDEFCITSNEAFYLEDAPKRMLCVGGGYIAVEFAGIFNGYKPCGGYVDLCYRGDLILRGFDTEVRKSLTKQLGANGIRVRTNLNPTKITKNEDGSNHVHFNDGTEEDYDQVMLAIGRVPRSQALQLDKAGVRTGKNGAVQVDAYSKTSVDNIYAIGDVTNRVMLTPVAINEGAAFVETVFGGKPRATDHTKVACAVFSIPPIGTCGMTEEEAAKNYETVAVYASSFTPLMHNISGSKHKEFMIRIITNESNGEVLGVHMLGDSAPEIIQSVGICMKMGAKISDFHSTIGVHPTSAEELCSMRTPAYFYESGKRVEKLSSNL

Structure (SMILES): NCCCCc1cn(-c2ccc(-c3nc(-c4ccccc4)c(-c4ccccc4)s3)c(OCCN3CCNC3=O)c2)nn1.O=C(O)C(F)(F)F [19a, 1-(2-(5-(4-(4-Ammoniobutyl)-1H-1,2,3-triazol-1-yl)-2-(4,5-diphenylthiazol-2-yl)phenoxy)ethyl)imidazolidin-2-one 2,2,2-Trifluoroacetate]
- recovery of enzymatic activity after inactivation: extremely slow process of recovery of the enzymatic activity
